The source of these data is PubChem BioAssay AID330 (DTP/NCI, 2004).

Where “and” joins values, the source holds several entries; their conditions need not be identical. Identical values can stand only once. Inconclusive results and toxic doses are left out.

The assay has as its system P388 leukemia ip, CD2F1 mice, survival T/C. In words: NCI In Vivo Anticancer Drug Screen. Data for tumor model P388 Leukemia (intraperitoneal) in CD2F1 (CDF1) mice. The following applies: endpoint: median survival time, higher = longer survival. In outline:
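Mice carrying the transplanted tumor received test compound or vehicle. Survival was recorded in each group, and the value is the treated-group measurement divided by that of the vehicle-treated control group.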

Where [1] appears, read: dose: 60.0 mg/kg/injection, schedule: Q01DX005 (ip), vehicle: Klucel (hydroxypropylcellulose) (HPC).
The mark [2] stands for this setting: dose: 120.0 mg/kg/injection, schedule: Q01DX005 (ip), vehicle: Klucel (hydroxypropylcellulose) (HPC).
The mark [3] stands for this setting: dose: 50.0 mg/kg/injection, schedule: Q01DX009 (ip), vehicle: Klucel (hydroxypropylcellulose) (HPC).
The mark [4] stands for this setting: dose: 100.0 mg/kg/injection, schedule: Q01DX009 (ip), vehicle: Klucel (hydroxypropylcellulose) (HPC).
Where [5] appears, read: dose: 200.0 mg/kg/injection, schedule: Q01DX009 (ip), vehicle: Klucel (hydroxypropylcellulose) (HPC).
[6] abbreviates: dose: 50.0 mg/kg/injection, schedule: Q01DX005 (ip), vehicle: Klucel (hydroxypropylcellulose) (HPC).
[7] abbreviates: dose: 100.0 mg/kg/injection, schedule: Q01DX005 (ip), vehicle: Klucel (hydroxypropylcellulose) (HPC).
Setting [8] is: dose: 200.0 mg/kg/injection, schedule: Q01DX005 (ip), vehicle: Klucel (hydroxypropylcellulose) (HPC).
[9] abbreviates: dose: 100.0 mg/kg/injection, schedule: Q04DX003 (ip), vehicle: saline.
Where [10] appears, read: dose: 200.0 mg/kg/injection, schedule: Q04DX003 (ip), vehicle: saline.
[11] abbreviates: dose: 400.0 mg/kg/injection, schedule: Q04DX003 (ip), vehicle: saline.
Where [12] appears, read: dose: 12.5 mg/kg/injection, schedule: Q01DX005 (ip), vehicle: saline with Tween-80.
Setting [13] is: dose: 100.0 mg/kg/injection, schedule: Q01DX005 (ip), vehicle: saline with Tween-80.
The mark [14] stands for this setting: dose: 200.0 mg/kg/injection, schedule: Q01DX005 (ip), vehicle: saline with Tween-80.
The mark [15] stands for this setting: dose: 50.0 mg/kg/injection, schedule: Q01DX005 (ip), vehicle: saline with Tween-80.

On to `O=C1NC(CN2CCCCC2)C(=O)NC1CN1CCCCC1` (centres undefined), for which the T/C runs as follows: under setting [1], 89 % of control; under setting [2], 92 % of control.
As for `CC(C)=CCC/C(C)=C/CC1=CC(=O)C=CC1=O`, the T/C reads like this: (dose: 25.0 mg/kg/injection, schedule: Q01DX009 (ip), vehicle: Klucel (hydroxypropylcellulose) (HPC)) 101 % of control; under setting [3], 97 % of control; under setting [4], 87 % of control.
Consider `CC1CCCCN1C(=S)Nc1ccc(S(=O)(=O)N2CCCCC2)cc1` (centres undefined), for which the T/C under setting [3] was 94 % of control, the T/C under setting [4] was 101 % of control and the T/C under setting [5] is 92 % of control.
In the case of `CCN(CC)CCOC(=O)Cc1cc(C)cc2c(=O)cc(-c3ccccc3)oc12`, the T/C under setting [6] is 97 % of control, the T/C under setting [7] was 102 % of control and the T/C under setting [8] was 101 % of control.
With `NC(=O)c1ccc([N+](=O)[O-])o1`, the T/C (dose: 12.5 mg/kg/injection, schedule: Q01DX009 (ip), vehicle: saline) was 99 % of control; the T/C (dose: 25.0 mg/kg/injection, schedule: Q01DX009 (ip), vehicle: saline) is 100 % of control; the T/C (dose: 50.0 mg/kg/injection, schedule: Q01DX009 (ip), vehicle: saline) is 95 % of control; the T/C (dose: 100.0 mg/kg/injection, schedule: Q01DX009 (ip), vehicle: saline) was 108 % of control.
For `Cc1cc(=O)n2c(-c3ccccc3)csc2n1`, the T/C is, setting by setting: (dose: 100.0 mg/kg/injection, schedule: Q04DX003 (ip), vehicle: Klucel (hydroxypropylcellulose) (HPC)) 101 % of control; (dose: 200.0 mg/kg/injection, schedule: Q04DX003 (ip), vehicle: Klucel (hydroxypropylcellulose) (HPC)) 110 % of control; (dose: 400.0 mg/kg/injection, schedule: Q04DX003 (ip), vehicle: Klucel (hydroxypropylcellulose) (HPC)) 113 % of control.
For `COc1cccc2c1C(=O)c1c(O)c3c(c(O)c1C2=O)C[C@@](O)(c1csc(-c2ccccc2)n1)C[C@@H]3OC1CC(N)C(O)C(C)O1` (some centres undefined), the T/C runs as follows: (dose: 1.56 mg/kg/injection, schedule: Q01DX009 (ip), vehicle: water) 174 % of control; (dose: 3.13 mg/kg/injection, schedule: Q01DX009 (ip), vehicle: water) 165 % of control; (dose: 6.25 mg/kg/injection, schedule: Q01DX009 (ip), vehicle: water) 182 % of control.
`Cn1c(CCCC(=O)O)nc2cc(N(CCCl)CCCl)ccc21`: the T/C runs as follows: (dose: 5.0 mg/kg/injection, schedule: Q01DX009 (ip), vehicle: saline sonified) 154 % of control; (dose: 9.9 mg/kg/injection, schedule: Q04DX003 (ip), vehicle: saline with Tween-80) 150 % of control; (dose: 10.0 mg/kg/injection, schedule: Q01DX009 (ip), vehicle: saline sonified) 168 % of control; (dose: 22.5 mg/kg/injection, schedule: Q04DX003 (ip), vehicle: saline with Tween-80) 163 % of control.
As for `O=c1c(N2CCOCC2)c(N2CCOCC2)c1=O`, the T/C runs as follows: (dose: 100.0 mg/kg/injection, schedule: Q01DX001 (ip), vehicle: saline with Tween-80) 100 % of control; (dose: 200.0 mg/kg/injection, schedule: Q01DX001 (ip), vehicle: saline with Tween-80) 95 % of control; (dose: 400.0 mg/kg/injection, schedule: Q01DX001 (ip), vehicle: saline with Tween-80) 90 % of control.
As to `COC(=O)/C=C/c1ccccc1-c1ccccc1/C=C/C(=O)OC`, the T/C under setting [9] is 105 % of control, the T/C under setting [10] was 102 % of control and the T/C under setting [11] is 100 % of control.
As to `COC(=O)CCSC(=S)Nc1ccc(Br)cc1`, the T/C by setting is: under setting [6], 100 % of control; under setting [7], 100 % of control; under setting [8], 102 % of control.
Take `C=CCC(CC)(C(=O)Nc1ccc2nc(C)cc(N)c2c1)C(=O)Nc1ccc2nc(C)cc(N)c2c1`: the T/C is 94 % of control (dose: 6.25 mg/kg/injection, schedule: Q01DX005 (ip), vehicle: saline with Tween-80); 89 % of control under setting [12]; 87 % of control under setting [13]; 96 % of control under setting [14].
For `CC(=O)O[B-]1(OC(C)=O)Oc2c3ccccc3c3c4c(ccc(c24)=[O+]1)O[B-](OC(C)=O)(OC(C)=O)[O+]=3`, the T/C is 94 % of control (dose: 50.0 mg/kg/injection, schedule: Q01DX005 (ip), vehicle: Klucel + Tween-80); 89 % of control (dose: 100.0 mg/kg/injection, schedule: Q01DX005 (ip), vehicle: Klucel + Tween-80); 93 % of control (dose: 200.0 mg/kg/injection, schedule: Q01DX005 (ip), vehicle: Klucel + Tween-80).
On to `O=c1c2ccccc2n2nc3ccccc3c2n1-c1ccccc1`, for which the T/C by setting is: (dose: 93.25 mg/kg/injection, schedule: Q04DX002 (ip), vehicle: Klucel (hydroxypropylcellulose) (HPC)) 104 % of control; (dose: 186.5 mg/kg/injection, schedule: Q04DX002 (ip), vehicle: Klucel (hydroxypropylcellulose) (HPC)) 98 % of control; (dose: 373.0 mg/kg/injection, schedule: Q04DX002 (ip), vehicle: Klucel (hydroxypropylcellulose) (HPC)) 95 % of control.
Take `OC1CCC(O)C1(Cl)Cl` (centres undefined): the T/C reads like this: (dose: 25.0 mg/kg/injection, schedule: Q04DX003 (ip), vehicle: saline) 99 % of control and 96 % of control; (dose: 50.0 mg/kg/injection, schedule: Q04DX003 (ip), vehicle: saline) 98 % of control and 107 % of control; under setting [9], 98 % of control and 103 % of control and 118 % of control; under setting [10], 98 % of control and 101 % of control and 124 % of control; under setting [11], 117 % of control.
As for `Nc1nc2c(c(=O)[nH]1)N(C(=O)CCCCCCC(=O)N1c3c(nc(N)[nH]c3=O)NCC1CNc1ccc(C(=O)NC(CCC(=O)O)C(=O)O)cc1)C(CNc1ccc(C(=O)NC(CCC(=O)O)C(=O)O)cc1)CN2` (centres undefined) (tested in a mixture with another compound), the T/C was 100 % of control under setting [15], 96 % of control under setting [13] and 100 % of control under setting [14].
As to `Cc1cc2c(c3c1C(C)CCC3=O)C(C)(C)CC2(C)C` (centres undefined), the T/C (dose: 50.0 mg/kg/injection, schedule: Q01DX005 (ip), vehicle: saline + Tween-80 + alcohol) was 101 % of control; the T/C (dose: 100.0 mg/kg/injection, schedule: Q01DX005 (ip), vehicle: saline + Tween-80 + alcohol) was 108 % of control; the T/C (dose: 200.0 mg/kg/injection, schedule: Q01DX005 (ip), vehicle: saline + Tween-80 + alcohol) is 104 % of control.
On to `NC(=S)n1nc(-c2cccs2)c(N=Nc2ccc(Cl)cc2)c1C(F)(F)F`, for which the T/C runs as follows: under setting [1], 87 % of control; under setting [2], 93 % of control.
For `CCOC(=O)C1=C(C)NC(=O)NC1c1cccs1` (centres undefined), the T/C is, setting by setting: under setting [6], 98 % of control; under setting [7], 96 % of control; under setting [8], 97 % of control.
With `CCCCN(CCCC)CCNC(c1ccc(OC)cc1)c1ccc(OC)cc1`, the T/C was 98 % of control under setting [15], 93 % of control under setting [13] and 96 % of control under setting [14].
`O=C1CCC(C(Sc2ccccc2)Sc2ccccc2)C1` (centres undefined): the T/C under setting [3] was 110 % of control, the T/C under setting [4] is 106 % of control and the T/C under setting [5] is 93 % of control.
As to `CC(=O)OCC1OC(Nc2ncc(-c3ccc(C)cc3)s2)C(OC(C)=O)C(OC(C)=O)C1OC(C)=O` (centres undefined), the T/C is, setting by setting: under setting [15], 98 % of control; under setting [13], 98 % of control; under setting [14], 92 % of control.
Turning to `C[n+]1c(/C=N/NC(N)=S)ccc2ccccc21`, the T/C (dose: 100.0 mg/kg/injection, schedule: Q01DX009 (ip), vehicle: saline with Tween-80) was 118 % of control.
With `CCc1ccc2c(-c3ccccc3)c3c(-c4ccccc4)c4ccccc4c(-c4ccccc4)c3c(-c3ccccc3)c2c1`, the T/C reads like this: under setting [12], 99 % of control; (dose: 25.0 mg/kg/injection, schedule: Q01DX005 (ip), vehicle: saline with Tween-80) 91 % of control; under setting [15], 98 % of control and 88 % of control.
`CC(=O)C1C(=O)C(=O)N(c2ccc(S(N)(=O)=O)cc2)C1=O` (centres undefined): the T/C was 103 % of control (dose: 60.0 mg/kg/injection, schedule: Q01DX005 (ip), vehicle: saline with Tween-80); 104 % of control (dose: 120.0 mg/kg/injection, schedule: Q01DX005 (ip), vehicle: saline with Tween-80); 118 % of control (dose: 240.0 mg/kg/injection, schedule: Q01DX005 (ip), vehicle: saline with Tween-80).
`CC1COn2c1nc1ccccc1c2=O` (centres undefined): the T/C runs as follows: under setting [3], 104 % of control; under setting [4], 103 % of control; under setting [5], 104 % of control.
